Active and inactive are the calls of the source.
Columns and labels:
[1] = biological target: Keap1/Nrf2 (Homo sapiens, UniProt Q14145); assay: Keap1-Nrf2 protein-protein interaction inhibitors, dose response, biochemical, fluorescence polarization, cherry-picked samples (AID 588683)
[2] = biological target: UDP-galactopyranose mutase (Mycobacterium tuberculosis, UniProt P9WIQ1); assay: Inhibitors of Mycobacterium tuberculosis UDP-galactopyranose mutase (UGM) enzyme Measured in Biochemical System Using Plate Reader - 2105-02_Inhibitor_Dose_CherryPick_Activity. [Related pubchem assays (depositor defined):AID504439]
[3] = tested on: HeLa; assay: HeLa cell cytotoxicity, dose response, cytotoxicity control for MITF activator project, CellTiter-Glo luminescence, cherry-pick samples (AID 540259); type: functional, cell-based; conditions: Homo sapiens
[4] = tested on: Vero; assay: cells; type: functional; conditions: Chlorocebus sabaeus
[5] = tested on: Vero; assay: cells; type: functional, cell-based; conditions: Chlorocebus sabaeus
[6] = biological target: ORF 73 (Human herpesvirus 8, UniProt O40947); assay: inhibitors of C-LANA binding to LBS DNA, dose response, biochemical, fluorescence polarization, cherry-picked samples (AID 504725); design: species or system Human gammaherpesvirus 8;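 further: fluorescence polarization of a labeled DNA duplex reporting LANA DNA binding; potency is for inhibitors that block LANA binding to the DNA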
[7] = cells; conditions: HEK293
[8] = Luminescence Cell-Based Dose Retest to Confirm Inhibitors of Cancer Stem Cells. [Related pubchem assays (depositor defined):AID2717, AID2721]; type: functional; conditions: Homo sapiens
[9] = tested on: CHO; assay: cytotoxicity in TLR9-MyD88 CHO cells, dose response, cytotoxicity control for TLR9-MyD88 binding inhibitor project, cell-based, luminescence (AID 588339); type: functional, hamster; conditions: Cricetulus griseus;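 further: CHO cells stably coexpressing TLR9 and MyD88 fusions from primary screen; compound exposure lasted 48 hours before viability readout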
[10] = HepG2 cell cytotoxicity, dose response, cytotoxicity control for Shn3 inhibitor project, CellTiter-Glo, cherry-picked (AID 624134); type: functional, cell-based
[11] = inhibitors of intracellular T. cruzi replication, confirmation, NIH3T3 host cells, beta-gal luminescence (AID 2044); type: functional, cell-based;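 further: intracellular parasites grown in NIH/3T3 mouse fibroblasts as host cells; luminescent beta-galactosidase reporter signal from transgenic T. cruzi replicating inside host cells; inhibitors lower the luminescence signal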
[12] = biological target: Beta Lactamase (Pseudomonas aeruginosa, UniProt Q932Y6); assay: beta-lactamase reporter inhibitor potency, dose response, artefact control for TLR9-MyD88 binding inhibitor project, BLA reporter cells, FRET fluorescence (AID 588341); type: cell-based;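 further: cell based assay in CHO-K1 cells stably expressing beta-lactamase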
[13] = biological target: T1, Type-1 angiotensin II receptor (Homo sapiens, UniProt P30556); assay: AT1 receptor antagonists, dose response, selectivity assay for APJ receptor antagonist project, cell-based, uHTS hits (AID 463214); type: functional;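 further: antagonist potency against angiotensin II stimulated AT1 response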
T1 sequence (P30556 whole entry): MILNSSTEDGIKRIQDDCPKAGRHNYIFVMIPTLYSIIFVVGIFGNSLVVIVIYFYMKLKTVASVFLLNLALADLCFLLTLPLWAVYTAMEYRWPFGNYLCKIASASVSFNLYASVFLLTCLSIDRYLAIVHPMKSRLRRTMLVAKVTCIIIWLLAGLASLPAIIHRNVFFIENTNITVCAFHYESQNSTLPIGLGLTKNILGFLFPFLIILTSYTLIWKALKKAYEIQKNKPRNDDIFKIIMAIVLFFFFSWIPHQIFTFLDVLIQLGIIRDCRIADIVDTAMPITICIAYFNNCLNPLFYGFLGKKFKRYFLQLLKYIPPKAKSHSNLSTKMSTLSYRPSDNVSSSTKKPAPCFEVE

[14] = biological target: Beta-galactosidase (Escherichia coli, UniProt Q8VNN2); assay: PubChem AID 485352; type: functional
[15] = Shn3 3'UTR reporter inhibitors, dose response, cell-based, Clone20 osteoblasts, firefly luciferase, cherry-picked (AID 624132); type: functional;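 further: firefly luciferase luminescence from reporter carrying the Shn3 3'UTR in osteoblasts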
[16] = control 3'UTR Renilla luciferase suppression, dose response, counter-screen for Shn3 inhibitor project, cell-based, Clone20-Shn3RL, cherry-picked (AID 624133); type: functional
[17] = tested on: INS1; assay: beta cell apoptosis inhibitors, cytokine rescue, dose response, luminescence, retest (AID 449756); type: functional, cell-based; conditions: Rattus norvegicus;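 further: cell death triggered by IL-1 beta plus TNF-alpha plus IFN-gamma mixture; protective hits raise ATP signal compared with cytokine alone wells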
[18] = biological target: T2, Replicative DNA helicase DnaB (Mycobacterium tuberculosis, UniProt P9WMR3); assay: DnaB intein splicing inhibitors, dose response, biochemical, cell-free fluorescence (AID 449749); type: functional
T2 sequence (P9WMR3 whole entry): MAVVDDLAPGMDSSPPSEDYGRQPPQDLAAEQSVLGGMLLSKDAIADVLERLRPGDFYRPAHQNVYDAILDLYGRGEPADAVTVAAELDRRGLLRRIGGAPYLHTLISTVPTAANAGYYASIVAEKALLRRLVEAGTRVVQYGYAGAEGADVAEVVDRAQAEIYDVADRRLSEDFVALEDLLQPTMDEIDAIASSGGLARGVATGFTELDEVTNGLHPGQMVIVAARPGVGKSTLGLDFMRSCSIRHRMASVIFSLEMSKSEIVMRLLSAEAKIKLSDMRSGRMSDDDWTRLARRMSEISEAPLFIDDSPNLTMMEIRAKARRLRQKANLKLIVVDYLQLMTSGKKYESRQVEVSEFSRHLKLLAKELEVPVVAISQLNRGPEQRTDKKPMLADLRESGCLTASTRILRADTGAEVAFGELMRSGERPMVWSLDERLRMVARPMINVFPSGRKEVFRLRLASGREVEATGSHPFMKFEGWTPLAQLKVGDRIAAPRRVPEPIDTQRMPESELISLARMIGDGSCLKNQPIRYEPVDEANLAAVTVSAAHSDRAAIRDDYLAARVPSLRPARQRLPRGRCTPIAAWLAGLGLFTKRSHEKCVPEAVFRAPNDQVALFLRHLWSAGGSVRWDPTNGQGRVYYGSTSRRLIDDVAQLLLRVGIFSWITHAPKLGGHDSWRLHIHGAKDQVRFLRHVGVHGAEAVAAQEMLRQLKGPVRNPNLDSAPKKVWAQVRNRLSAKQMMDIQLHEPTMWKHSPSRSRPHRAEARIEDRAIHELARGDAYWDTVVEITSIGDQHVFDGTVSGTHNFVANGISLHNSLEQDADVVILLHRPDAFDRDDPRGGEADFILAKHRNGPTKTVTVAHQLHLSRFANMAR

[19] = tested on: HEK293; assay: inhibitors of LMP1-driven NF-kB reporter, dose response, cell-based, HEK293, luciferase, cherry-pick (AID 588343); type: functional; conditions: Homo sapiens
[20] = biological target: T3, Protein RecA (Mycobacterium tuberculosis, UniProt P9WHJ3); assay: Fluorescence Cell-Free Homogeneous Dose Retest to Identify Inhibitors of RecA-Intein Splicing Activity. [Related pubchem assays (depositor defined):AID2097, AID2223, AID489010, AID492950]; type: functional
T3 sequence (P9WHJ3 whole entry): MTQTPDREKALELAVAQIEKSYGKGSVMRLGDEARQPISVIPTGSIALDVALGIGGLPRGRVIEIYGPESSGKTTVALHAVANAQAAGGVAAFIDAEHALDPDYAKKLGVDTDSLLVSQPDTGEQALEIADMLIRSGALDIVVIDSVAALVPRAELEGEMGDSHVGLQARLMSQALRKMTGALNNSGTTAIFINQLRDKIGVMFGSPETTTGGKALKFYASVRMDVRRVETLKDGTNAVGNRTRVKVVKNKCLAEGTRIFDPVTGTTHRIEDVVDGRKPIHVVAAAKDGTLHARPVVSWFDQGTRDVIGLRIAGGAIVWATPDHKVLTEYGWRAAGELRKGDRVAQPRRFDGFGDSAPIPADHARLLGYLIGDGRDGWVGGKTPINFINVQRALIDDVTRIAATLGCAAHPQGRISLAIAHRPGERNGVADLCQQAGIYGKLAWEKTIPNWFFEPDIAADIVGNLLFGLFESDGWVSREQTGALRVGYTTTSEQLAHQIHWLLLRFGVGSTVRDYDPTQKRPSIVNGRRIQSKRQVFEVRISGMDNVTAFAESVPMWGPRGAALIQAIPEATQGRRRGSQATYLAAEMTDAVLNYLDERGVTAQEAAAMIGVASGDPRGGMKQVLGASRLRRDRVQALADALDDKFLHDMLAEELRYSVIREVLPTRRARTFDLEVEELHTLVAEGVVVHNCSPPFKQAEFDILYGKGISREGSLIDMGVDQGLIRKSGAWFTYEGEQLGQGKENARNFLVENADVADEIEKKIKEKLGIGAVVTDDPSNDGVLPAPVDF

[21] = cytotoxicity toward NIH3T3 fibroblasts, dose response, counter-screen, cell-based, ATP luminescence, mouse fibroblasts (AID 2010); type: functional;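 further: cells exposed to compound for about 90 hours before reading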
[22] = tested on: BJ; assay: cytotoxicity toward BJ-TERT fibroblasts, dose response, cell-based, RAS-independent, luminescence (AID 1933); type: functional; conditions: Homo sapiens
[23] = tested on: BJ; assay: cytotoxicity toward BJ-TERT-LT-ST fibroblasts, dose response, cell-based, RAS-independent, luminescence (AID 1935); type: functional; conditions: Homo sapiens;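 further: BJ fibroblasts immortalized with TERT plus LT and ST oncogenes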
[24] = cytotoxicity toward DRD oncogenic fibroblasts, dose response, cell-based, non-viral oncogenic, luminescence (AID 1934); type: functional; conditions: Homo sapiens
[25] = tested on: BJ; assay: cells; type: functional, cell-based; conditions: Homo sapiens
[26] = tested on: BJ; assay: cytotoxicity toward Ras-transformed BJeLR fibroblasts, dose response, cell-based, alamar blue fluorescence, cherrypicked samples (AID 2631); type: functional; conditions: Homo sapiens;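 further: confirmatory dose-response assay in RAS-dependent BJ fibroblasts engineered with TERT, LT and ST, with cytotoxicity read by fluorescence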
[27] = biological target: T4, Endoribonuclease toxin MazF (Escherichia coli K-12, UniProt P0AE70); assay: MazF toxin RNase activators, dose response, biochemical, fluorescence, single-stranded RNA substrate, uHTS hits (AID 588481); type: functional
T4 sequence (P0AE70 whole entry): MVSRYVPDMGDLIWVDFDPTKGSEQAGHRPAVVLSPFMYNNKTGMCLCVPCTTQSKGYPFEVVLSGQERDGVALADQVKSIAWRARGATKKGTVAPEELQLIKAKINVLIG

[28] = biological target: T4, Endoribonuclease toxin MazF; assay: fluorescent RNA oligo signal without MazF, dose response, counter-screen for MazEF activator project, biochemical, fluorescence, single-stranded RNase substrate (AID 588502); type: functional

Chain of Keap1/Nrf2 (Q16236 whole entry): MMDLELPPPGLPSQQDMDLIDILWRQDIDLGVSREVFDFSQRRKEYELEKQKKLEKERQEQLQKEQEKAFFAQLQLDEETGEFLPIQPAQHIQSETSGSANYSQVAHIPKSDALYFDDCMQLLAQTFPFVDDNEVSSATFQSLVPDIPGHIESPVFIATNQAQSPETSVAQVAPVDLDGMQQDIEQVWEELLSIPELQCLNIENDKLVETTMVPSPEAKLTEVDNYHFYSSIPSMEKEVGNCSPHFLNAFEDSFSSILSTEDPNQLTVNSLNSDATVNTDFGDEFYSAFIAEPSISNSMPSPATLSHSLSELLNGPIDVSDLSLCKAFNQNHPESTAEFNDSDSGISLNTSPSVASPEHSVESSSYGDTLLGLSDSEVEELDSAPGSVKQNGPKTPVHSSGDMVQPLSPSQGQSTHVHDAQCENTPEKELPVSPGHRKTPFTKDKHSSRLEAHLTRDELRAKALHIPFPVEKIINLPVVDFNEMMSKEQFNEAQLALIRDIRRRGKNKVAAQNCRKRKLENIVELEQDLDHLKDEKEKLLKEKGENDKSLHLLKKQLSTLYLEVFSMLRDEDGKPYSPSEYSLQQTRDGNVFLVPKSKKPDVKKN
Chain of Keap1/Nrf2 (Q14145 whole entry): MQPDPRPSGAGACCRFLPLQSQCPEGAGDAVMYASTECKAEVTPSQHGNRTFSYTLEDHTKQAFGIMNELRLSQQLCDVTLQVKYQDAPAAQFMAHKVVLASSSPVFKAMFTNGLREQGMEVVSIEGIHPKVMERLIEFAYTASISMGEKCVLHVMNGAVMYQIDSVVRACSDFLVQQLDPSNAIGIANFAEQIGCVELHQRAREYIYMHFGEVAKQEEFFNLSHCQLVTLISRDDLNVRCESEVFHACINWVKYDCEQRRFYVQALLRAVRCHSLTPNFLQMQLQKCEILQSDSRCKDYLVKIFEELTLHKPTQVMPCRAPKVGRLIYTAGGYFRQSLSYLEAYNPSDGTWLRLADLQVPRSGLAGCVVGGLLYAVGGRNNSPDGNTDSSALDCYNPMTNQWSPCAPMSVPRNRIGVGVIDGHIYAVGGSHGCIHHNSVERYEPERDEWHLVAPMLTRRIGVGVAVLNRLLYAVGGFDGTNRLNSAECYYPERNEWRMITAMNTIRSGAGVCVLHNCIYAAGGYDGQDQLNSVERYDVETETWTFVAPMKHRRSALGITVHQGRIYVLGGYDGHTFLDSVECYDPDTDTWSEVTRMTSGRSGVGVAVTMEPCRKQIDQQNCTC
Chain of UDP-galactopyranose mutase (P9WIQ1 whole entry): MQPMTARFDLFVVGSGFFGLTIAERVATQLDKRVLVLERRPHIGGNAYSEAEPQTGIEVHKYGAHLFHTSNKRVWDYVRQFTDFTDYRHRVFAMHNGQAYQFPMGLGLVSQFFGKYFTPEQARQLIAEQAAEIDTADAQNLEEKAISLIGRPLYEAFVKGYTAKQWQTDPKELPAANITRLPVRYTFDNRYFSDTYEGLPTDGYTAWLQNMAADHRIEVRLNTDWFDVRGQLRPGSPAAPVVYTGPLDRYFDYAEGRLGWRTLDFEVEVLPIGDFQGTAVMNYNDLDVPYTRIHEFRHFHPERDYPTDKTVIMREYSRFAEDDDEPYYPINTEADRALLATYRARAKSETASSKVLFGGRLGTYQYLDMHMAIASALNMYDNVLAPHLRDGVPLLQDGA
Chain of Beta-galactosidase (Q8VNN2 whole entry): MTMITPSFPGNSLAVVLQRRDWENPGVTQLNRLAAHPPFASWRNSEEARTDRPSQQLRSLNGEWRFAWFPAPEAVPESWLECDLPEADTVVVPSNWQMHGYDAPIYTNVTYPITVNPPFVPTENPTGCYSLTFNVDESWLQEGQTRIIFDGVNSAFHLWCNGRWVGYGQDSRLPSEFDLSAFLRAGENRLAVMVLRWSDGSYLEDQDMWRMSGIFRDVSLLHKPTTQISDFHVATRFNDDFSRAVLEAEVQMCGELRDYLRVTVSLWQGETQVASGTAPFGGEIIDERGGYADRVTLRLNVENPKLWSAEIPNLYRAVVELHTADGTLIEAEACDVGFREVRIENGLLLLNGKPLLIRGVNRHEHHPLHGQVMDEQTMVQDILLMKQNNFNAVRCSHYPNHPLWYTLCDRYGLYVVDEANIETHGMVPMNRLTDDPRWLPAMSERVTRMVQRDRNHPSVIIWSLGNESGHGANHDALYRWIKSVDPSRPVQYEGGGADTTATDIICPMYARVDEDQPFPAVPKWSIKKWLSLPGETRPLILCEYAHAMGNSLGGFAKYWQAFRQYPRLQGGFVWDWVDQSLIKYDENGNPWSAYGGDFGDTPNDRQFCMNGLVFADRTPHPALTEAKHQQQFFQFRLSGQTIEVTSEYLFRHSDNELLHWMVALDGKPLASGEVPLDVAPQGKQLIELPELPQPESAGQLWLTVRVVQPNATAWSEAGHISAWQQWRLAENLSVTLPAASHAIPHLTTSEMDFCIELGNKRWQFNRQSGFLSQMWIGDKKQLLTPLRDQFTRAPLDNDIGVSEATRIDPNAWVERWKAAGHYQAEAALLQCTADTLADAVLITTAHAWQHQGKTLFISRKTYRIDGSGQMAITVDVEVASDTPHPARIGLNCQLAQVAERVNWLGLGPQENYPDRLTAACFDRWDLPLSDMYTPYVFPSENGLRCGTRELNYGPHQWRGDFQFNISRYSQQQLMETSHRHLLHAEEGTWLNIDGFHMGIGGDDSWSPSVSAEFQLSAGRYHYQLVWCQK
Chain of ORF 73 (O40947 whole entry): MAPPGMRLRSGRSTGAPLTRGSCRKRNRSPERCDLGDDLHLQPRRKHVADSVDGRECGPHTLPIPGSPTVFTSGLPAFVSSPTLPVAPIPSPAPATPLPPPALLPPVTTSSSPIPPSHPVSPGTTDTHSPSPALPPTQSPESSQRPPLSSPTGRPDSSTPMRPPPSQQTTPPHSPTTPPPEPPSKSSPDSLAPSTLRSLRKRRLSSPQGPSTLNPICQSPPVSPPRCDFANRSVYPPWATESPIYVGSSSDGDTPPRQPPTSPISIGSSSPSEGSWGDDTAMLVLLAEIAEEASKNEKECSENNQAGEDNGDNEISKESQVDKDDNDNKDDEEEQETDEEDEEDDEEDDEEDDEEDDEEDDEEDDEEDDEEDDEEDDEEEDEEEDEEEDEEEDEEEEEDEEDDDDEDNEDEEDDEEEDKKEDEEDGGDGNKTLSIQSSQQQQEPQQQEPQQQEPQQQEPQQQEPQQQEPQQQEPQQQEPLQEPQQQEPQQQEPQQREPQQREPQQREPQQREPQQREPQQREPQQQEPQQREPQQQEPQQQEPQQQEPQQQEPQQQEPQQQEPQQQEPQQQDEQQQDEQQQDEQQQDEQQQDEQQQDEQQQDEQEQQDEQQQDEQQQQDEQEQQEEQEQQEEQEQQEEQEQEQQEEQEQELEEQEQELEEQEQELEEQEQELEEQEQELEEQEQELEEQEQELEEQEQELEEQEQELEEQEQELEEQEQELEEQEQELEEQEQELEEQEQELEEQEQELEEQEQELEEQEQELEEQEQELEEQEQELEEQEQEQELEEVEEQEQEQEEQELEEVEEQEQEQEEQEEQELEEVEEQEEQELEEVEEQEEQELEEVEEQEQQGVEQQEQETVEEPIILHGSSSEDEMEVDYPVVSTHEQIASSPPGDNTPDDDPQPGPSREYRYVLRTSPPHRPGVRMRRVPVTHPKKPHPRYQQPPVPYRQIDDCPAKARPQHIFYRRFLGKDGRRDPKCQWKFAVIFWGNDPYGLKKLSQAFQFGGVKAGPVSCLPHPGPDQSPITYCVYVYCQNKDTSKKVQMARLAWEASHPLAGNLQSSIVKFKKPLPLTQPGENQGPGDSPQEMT
Chain of Beta Lactamase (Q932Y6 whole entry): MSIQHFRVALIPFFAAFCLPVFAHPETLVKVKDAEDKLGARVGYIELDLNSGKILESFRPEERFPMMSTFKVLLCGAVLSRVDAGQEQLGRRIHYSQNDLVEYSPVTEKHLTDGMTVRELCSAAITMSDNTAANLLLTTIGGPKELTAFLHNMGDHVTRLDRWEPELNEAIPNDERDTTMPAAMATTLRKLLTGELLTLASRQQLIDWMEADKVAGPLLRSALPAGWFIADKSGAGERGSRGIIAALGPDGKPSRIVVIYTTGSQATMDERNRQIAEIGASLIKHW

COc1ccc(N=Nc2nc3cc(Br)c(Br)cc3n2C)c(OC)c1
AC50 [1]: > 52 µM (inactive)
AC50 [2]: 247 µM (active)

Cc1cc(C)n(-c2nnc(NC(C)(C)C)nn2)n1
AC50 [3]: 62.6 µM (active)

CN(C)CCCNc1ncnc2c1c(-c1ccccc1)cn2-c1ccccc1
CC50 [4]: > 25 µM (active)
IC50 [5]: 23.9 µM (active)

CCN(CC)c1ccc2cc(S(=O)(=O)c3ccc(Cl)cc3)c(=O)oc2c1
AC50 [6]: 19.1 µM (active)
AC50 [7]: 35.7 µM (active)
AC50 [1]: 11.8 µM (active)
AC50 [8]: 0.246 µM (active)
AC50 [2]: 10.8 µM (active)

CS(=O)(=O)c1ncc(Cl)c(C(=O)Nc2ccc(OC(F)F)cc2)n1
IC50 [9]: 2.17 µM (active)
AC50 [10]: 22.1 µM (active)
EC50 [11]: 1.52 µM (active)
IC50 [12]: 6.65 µM (active)
IC50 [13]: 7.79 µM (active)
EC50 [14]: > 40 µM (inactive)
AC50 [15]: 0.682 µM (active)
AC50 [16]: 7.27 µM (active)
AC50 [17]: 8.07 µM (active)
AC50 [18]: 3.68 µM (active)
AC50 [19]: 7.88 µM (active)
EC50 [20]: 3.72 µM (active)
EC50 [21]: 4.44 µM (active)

CCN1CCN(CCNC(=O)c2ccc(/C=C3/Sc4ccccc4N(Cc4ccccc4C)C3=O)cc2)CC1
EC50 [22]: 6.6 µM (active)
EC50 [23]: > 150 µM (inconclusive)
EC50 [24]: 9.43 µM (active)
EC50 [25]: 13.7 µM (active)
EC50 [26]: > 133 µM (inconclusive)

O=C(N/N=C/c1cccnc1)c1ccc(NC(=O)C(c2ccccc2)c2ccccc2)cc1
EC50 [22]: > 150 µM (not active)
AC50 [17]: 0.578 µM (active)
EC50 [27]: 40.8 µM (inactive)
EC50 [23]: > 150 µM (not active)
EC50 [24]: > 150 µM (not active)
EC50 [25]: 0.949 µM (inconclusive)
EC50 [28]: > 99 µM (inactive)
EC50 [26]: > 66.7 µM (inactive)

CCN(CC)C(=O)C1CCCc2c1[nH]c1ccc(Cl)cc21 (centres undefined)
CC50 [4]: > 25 µM (active)
IC50 [5]: 3.28 µM (active)

CC1CCN(c2ccc3c(c2)S(=O)(=O)c2ccccc2C3=O)CC1
AC50 [3]: 39.7 µM (active)

From ChEMBL document CHEMBL1201862, “PubChem BioAssay data set” (2004)
